According to ChEMBL document CHEMBL1127888, “Synthesis and biological activity of intercalator substituted bile steroids” (Bioorg Med Chem Lett, 1994):

Experiments:
[1] = tested on: L1210; test: Inhibitory activity against mouse leukemia L1210 cells; Range is 20 to >50; type: functional, cell-based
[2] = tested on: L1210; test: Inhibitory activity against mouse leukemia L1210 cells; type: functional, cell-based

Row | SMILES | IC50 [1] [µM] | IC50 [2] [µM]
1 | CC(CCCOC(=O)c1cnc2ccccc2c1)C1CC[C@H]2[C@@H]3[C@H](O)CC4C[C@H](OC(=O)c5cnc6ccccc6c5)CC[C@]4(C)[C@H]3C[C@H](O)[C@]12C (stereo not given in full) | > 50 | 
2 | CC(CCCOC(=O)c1ccc2ccccc2n1)C1CC[C@H]2[C@@H]3[C@H](O)CC4C[C@H](OC(=O)c5cnc6ccccc6n5)CC[C@]4(C)[C@H]3C[C@H](O)[C@]12C (stereo not given in full) | > 50 | 
3 | CC(CCCOC(=O)c1cnc2ccccc2n1)C1CC[C@H]2[C@@H]3[C@H](O)CC4C[C@H](OC(=O)c5cnc6ccccc6n5)CC[C@]4(C)[C@H]3C[C@H](O)[C@]12C (stereo not given in full) | > 50 | 
4 | CC(CCCOC(=O)c1ccc2ccccc2n1)C1CC[C@H]2[C@@H]3[C@H](O)CC4C[C@H](OC(=O)c5ccc6ccccc6n5)CC[C@]4(C)[C@H]3C[C@H](O)[C@]12C (stereo not given in full) | > 50 | 
5 | CC(CCCOC(=O)c1cnc2ccccc2c1)C1CC[C@H]2[C@@H]3[C@H](O)CC4C[C@H](O)CC[C@]4(C)[C@H]3C[C@H](O)[C@]12C (stereo not given in full) |  | 4.8
